Results on two compounds are retold here after patent US10258041B2, “Substituted pyrazolylpyrazole derivative and use of same as herbicide” (KYOYU AGRI CO., LTD., priority 2015, dated 2019).

Holding throughout (format): in vivo
Data set [1] relates to Echinochloa crus-galli. Put plainly: Paddy herbicidal activity test. The following applies: irrigated pot, treated at 3.5 leaf stage of Echinochloa crus-galli, 30 days. Here is the method: (§1) Rice paddy soil was filled into a 1/10000 are pot followed by the addition of suitable amounts of water and chemical fertilizer, kneading, seeding with Echinochloa crus-galli, Monochoria vaginalis and Scirpus juncoides and maintaining in an irrigated state at a water depth of 3 cm. Wettable powders of Target Compound (I) shown in Table 1 prepared in compliance with the preparation examples were diluted with a suitable amount of water, rice plants in the 2.0 leaf stage were transplanted during 3.5 leaf stage of Echinochloa crus-galli, and treated by dropping in chemical in the prescribed amount per 10 are using a pipette. After treating for 30 days in a glass greenhouse at an average atmospheric temperature of […], the herbicidal efficacy thereof was investigated. Evaluation of herbicidal efficacy was carried out by comparing growth inhibition rate (%) with an untreated group, while evaluation of chemical damage was carried out by comparing growth inhibition rate (%) with the state of a complete eradication group, and were evaluated at 11 levels indicated below. • 0 (exponent): 0% to less than 10% (growth inhibition rate) • 1: 10% to less than 20% • 2: 20% to less than 30% • 3: 30% to less than 40% • 4: 40% to less than 50% • 5: 50% to less than 60% • 6: 60% to less than 70% • 7: 70% to less than 80% • 8: 80% to less than 90% • 9: 90% to less than 100% • 10: 100%

In data set [2] the test system is Monochoria vaginalis. Briefly: Paddy herbicidal activity test. The settings on record: irrigated pot, treated at 3.5 leaf stage of Echinochloa crus-galli, 30 days. Here is the method: as §1
Data set [3] has as its system Scirpus juncoides. Put plainly: Paddy herbicidal activity test. The following applies: irrigated pot, treated at 3.5 leaf stage of Echinochloa crus-galli, 30 days. The procedure:
as §1

Data set [4] deals with Oryza sativa. Briefly: Paddy herbicidal activity test, chemical damage to transplanted rice. The settings on record: rice transplanted in 2.0 leaf stage, 30 days. Here is the method:
as §1

Data set [5] concerns Amaranthus retroflexus. Briefly: Farming soil treatment test. The settings on record: soil surface spray prior to weed growth, 30 days, 30° C. The procedure:
(§2) Evaluation of herbicidal efficacy was carried out by comparing growth inhibition rate (%) with an untreated group, while evaluation of chemical damage was carried out by comparing growth inhibition rate (%) with the state of a complete eradication group, and were evaluated at 11 levels indicated below. • 0 (exponent): 0% to less than 10% (growth inhibition rate) • 1: 10% to less than 20% • 2: 20% to less than 30% • 3: 30% to less than 40% • 4: 40% to less than 50% • 5: 50% to less than 60% • 6: 60% to less than 70% • 7: 70% to less than 80% • 8: 80% to less than 90% • 9: 90% to less than 100% • 10: 100% Field soil was filled into a 1/6000 are pot followed by seeding with Digitaria ciliaris, Chenopodium album and Amraranthus retroflexus and covering with soil. Wettable powders of compounds of formula (I) shown in Table 1 prepared in compliance with the preparation examples were diluted with water to the prescribed amount of chemical and uniformly sprayed onto each soil surface layer using 100 liters of sprayed water per 10 are prior to weed growth following seeding. After treating for 30 days in a glass greenhouse at an average atmospheric temperature of 30° C., the herbicidal efficacy thereof was investigated. Evaluation of herbicidal efficacy was carried out in the same manner as the above-mentioned Test Example 1,

In data set [6] the test system is Chenopodium album. Briefly: Farming soil treatment test. The following applies: soil surface spray prior to weed growth, 30 days, 30° C. The procedure:
as §2

Data set [7] relates to Digitaria ciliaris. Put plainly: Farming soil treatment test. The settings on record: soil surface spray prior to weed growth, 30 days, 30° C. Here is the method:
as §2

Data set [8] relates to Amaranthus retroflexus. Put plainly: Weed foliar treatment test (Test 3). The settings on record: foliar spray at 1.0 to 2.0 leaf stage of Digitaria ciliaris, 3 weeks, 25° C. The procedure:
(§3) Evaluation of herbicidal efficacy was carried out by comparing growth inhibition rate (%) with an untreated group, while evaluation of chemical damage was carried out by comparing growth inhibition rate (%) with the state of a complete eradication group, and were evaluated at 11 levels indicated below. • 0 (exponent): 0% to less than 10% (growth inhibition rate) • 1: 10% to less than 20% • 2: 20% to less than 30% • 3: 30% to less than 40% • 4: 40% to less than 50% • 5: 50% to less than 60% • 6: 60% to less than 70% • 7: 70% to less than 80% • 8: 80% to less than 90% • 9: 90% to less than 100% • 10: 100% Soil was filled into a 1/6000 are pot followed by seeding with Digitaria ciliaris, Chenopodium album and Amaranthus retroflexus, covering with soil, and cultivating in a glass greenhouse at an average atmospheric temperature of 25° C. Wettable powders of Target Compound (I) shown in Table 1 prepared in compliance with the preparation examples were diluted with water to the prescribed amount of chemical and uniformly sprayed onto the weeds using 150 liters of sprayed water per 10 are when Digitaria ciliaris had grown to the 1.0 to 2.0 leaf stage. After treating for 3 weeks in a glass greenhouse at an average atmospheric temperature of 25° C., the herbicidal efficacy thereof was investigated. Evaluation of herbicidal efficacy was carried out in the same manner as the above-mentioned Test Example 1.

The test system of data set [9] is Chenopodium album. Put plainly: Weed foliar treatment test (Test 3). The following applies: foliar spray at 1.0 to 2.0 leaf stage of Digitaria ciliaris, 3 weeks, 25° C. Here is the method:
as §3

Data set [10] deals with Digitaria ciliaris. Briefly: Weed foliar treatment test (Test 3). The following applies: foliar spray at 1.0 to 2.0 leaf stage of Digitaria ciliaris, 3 weeks, 25° C. The procedure: as §3
Data set [11] concerns Digitaria ciliaris. Put plainly: Weed foliar treatment test (Test 4, higher leaf stage). The settings on record: 10 g a.i./10a; foliar spray at 4.0 to 5.0 leaf stage of Digitaria ciliaris (plant height 10 cm to 15 cm); 20 days, 25° C. The procedure: (§4) Evaluation of herbicidal efficacy was carried out by comparing growth inhibition rate (%) with an untreated group, while evaluation of chemical damage was carried out by comparing growth inhibition rate (%) with the state of a complete eradication group, and were evaluated at 11 levels indicated below. • 0 (exponent): 0% to less than 10% (growth inhibition rate) • 1: 10% to less than 20% • 2: 20% to less than 30% • 3: 30% to less than 40% • 4: 40% to less than 50% • 5: 50% to less than 60% • 6: 60% to less than 70% • 7: 70% to less than 80% • 8: 80% to less than 90% • 9: 90% to less than 100% • 10: 100% Field soil was filled into a 1/4500 are pot followed by seeding with Digitaria ciliaris and Galinsoga parviflora, covering with soil and cultivating in a glass greenhouse at an average atmospheric temperature of 25° C. Wettable powders of Target Compound (I) shown, in Table 1 prepared in compliance with the preparation examples were diluted with water to the prescribed amount of chemical and uniformly sprayed onto the weeds using 100 liters of sprayed water per 10 are when Digitaria ciliaris had grown to the 4.0 to 5.0 leaf stage (plant height: 10 cm to 15 cm). After treating for 20 days in a glass greenhouse at an average atmospheric temperature of 25° C., the herbicidal efficacy thereof was investigated. Evaluation of herbicidal efficacy was carried out in the same manner as the above-mentioned Test Example 1.

The test system of data set [12] is Galinsoga parviflora. Described as above. The following applies: 10 g a.i./10a; foliar spray at 4.0 to 5.0 leaf stage of Digitaria ciliaris; 20 days, 25° C. Here is the method:
as §4

`N#Cc1cnn(-c2nn3c(c2Cl)CCCC3)c1NC(=O)CCl` [Control Agent 1.9]: the “herbicidal efficacy (growth inhibition rate level), Echinochloa crus-galli” value in data set [1] (1 g a.i./10a) and in data set [1] (5 g a.i./10a) was 2 (2: 20% to less than 30%) throughout. The “herbicidal efficacy (growth inhibition rate level), Monochoria vaginalis” value in [2] (1 g a.i./10a) and in data set [2] (5 g a.i./10a) was 2 (2: 20% to less than 30%) in each case. The “herbicidal efficacy (growth inhibition rate level), Scirpus juncoides” value in data set [3] (1 g a.i./10a) is 0 (0 (exponent): 0% to less than 10% (growth inhibition rate)); in data set [3] (5 g a.i./10a), 1 (1: 10% to less than 20%). The “chemical damage (growth inhibition rate level), Oryza sativa” value in [4] (1 g a.i./10a) and in data set [4] (5 g a.i./10a) was 1 (1: 10% to less than 20%) each time. In addition, the “herbicidal efficacy (growth inhibition rate level), Amaranthus retroflexus” value in data set [5] (5 g a.i./10a) is given as 5 (5: 50% to less than 60%); in data set [5] (10 g a.i./10a), 6 (6: 60% to less than 70%); in [8] (5 g a.i./10a), 6 (6: 60% to less than 70%); in data set [8] (10 g a.i./10a), 6 (6: 60% to less than 70%). Also, the “herbicidal efficacy (growth inhibition rate level), Chenopodium album” value in data set [6] (5 g a.i./10a) was 1 (1: 10% to less than 20%); in [6] (10 g a.i./10a), 2 (2: 20% to less than 30%); in [9] (5 g a.i./10a) it was 1 (1: 10% to less than 20%); in data set [9] (10 g a.i./10a) it was 2 (2: 20% to less than 30%). Moreover, the “herbicidal efficacy (growth inhibition rate level), Digitaria ciliaris” value in [7] (5 g a.i./10a) is 0 (0 (exponent): 0% to less than 10% (growth inhibition rate)); in [7] (10 g a.i./10a), 1 (1: 10% to less than 20%); in [10] (5 g a.i./10a), 2 (2: 20% to less than 30%); in data set [10] (10 g a.i./10a) it was 2 (2: 20% to less than 30%); in data set [11] it was 1 (1: 10% to less than 20%). In addition, the “herbicidal efficacy (growth inhibition rate level), Galinsoga parviflora” value in data set [12] was 5 (5: 50% to less than 60%).
Turning to `CC(=O)Nc1c([N+](=O)[O-])cnn1-c1nn2c(c1Cl)CCCC2` [Control Agent 2.17], the “herbicidal efficacy (growth inhibition rate level), Echinochloa crus-galli” value in [1] (1 g a.i./10a) and in [1] (5 g a.i./10a) was 1 (1: 10% to less than 20%) throughout. Moreover, the “herbicidal efficacy (growth inhibition rate level), Monochoria vaginalis” value in data set [2] (1 g a.i./10a) is listed as 1 (1: 10% to less than 20%); in [2] (5 g a.i./10a) it was 2 (2: 20% to less than 30%). Moreover, the “herbicidal efficacy (growth inhibition rate level), Scirpus juncoides” value in data set [3] (1 g a.i./10a) was 0 (0 (exponent): 0% to less than 10% (growth inhibition rate)); in data set [3] (5 g a.i./10a), 1 (1: 10% to less than 20%). Moreover, the “chemical damage (growth inhibition rate level), Oryza sativa” value in [4] (1 g a.i./10a) is reported as 0 (0 (exponent): 0% to less than 10% (growth inhibition rate)); in data set [4] (5 g a.i./10a) it was 1 (1: 10% to less than 20%). Besides, the “herbicidal efficacy (growth inhibition rate level), Amaranthus retroflexus” value in data set [5] (5 g a.i./10a) was 4 (4: 40% to less than 50%); in data set [5] (10 g a.i./10a), 5 (5: 50% to less than 60%); in data set [8] (5 g a.i./10a) it was 6 (6: 60% to less than 70%); in [8] (10 g a.i./10a), 6 (6: 60% to less than 70%). In addition, the “herbicidal efficacy (growth inhibition rate level), Chenopodium album” value is on record as 0 (0 (exponent): 0% to less than 10% (growth inhibition rate)) in [6] (5 g a.i./10a), 1 (1: 10% to less than 20%) in data set [6] (10 g a.i./10a), 0 (0 (exponent): 0% to less than 10% (growth inhibition rate)) in data set [9] (5 g a.i./10a) and 1 (1: 10% to less than 20%) in data set [9] (10 g a.i./10a). Also, the “herbicidal efficacy (growth inhibition rate level), Digitaria ciliaris” value in data set [7] (5 g a.i./10a) is recorded as 0 (0 (exponent): 0% to less than 10% (growth inhibition rate)); in data set [7] (10 g a.i./10a), 1 (1: 10% to less than 20%); in data set [10] (5 g a.i./10a), 2 (2: 20% to less than 30%); in data set [10] (10 g a.i./10a) it was 2 (2: 20% to less than 30%); in data set [11], 0 (0 (exponent): 0% to less than 10% (growth inhibition rate)). For the same compound, the “herbicidal efficacy (growth inhibition rate level), Galinsoga parviflora” value in data set [12] is 5 (5: 50% to less than 60%).
